# Results taken from US8420052B2, “Imaging agents useful for identifying AD pathology” (Siemens Medical Solutions USA, Inc., priority 2008, dated 2013).
# Assays:
# [1] = target: synthetic beta-Amyloid-42 (Homo sapiens, UniProt P05067); experiment: Amyloid fibril (synthetic A-Beta42) binding assay; conditions: 10 uM synthetic beta-Amyloid-42, 90 min; compared with 18F-PiB
# Protocol: Amyloid Fibril (Synthetic A-Beta42) Binding Assay Incubation of various concentration of [F18]-compound (starting with 200 nM cold compound and 100 μCi of F18-compound) with or without 10 μM of synthetic beta-Amyloid-42 for 90 min Filter through G/F glass fiber, wash filter 2 times with 20% ethanol/PBS at room temperature, count the radioactivity, and measure the KD value.
# [2] = Mouse brain microPET imaging; format: in vivo, mice
# Protocol: Mouse Brain MicroPET Imaging
# FIGS. 11 and 12 show the results of mouse brain imaging with 18F-W372 in WT and APP mice. […] There is not much difference between APP and WT mice, but both App mice do appear to be slightly better retained after 13 min (App:WT=1.5:1).
# FIGS. 14a and 14b show a comparison of brain uptake between 18F-PiB and 18F-W372 using dynamic microPET scanning in young and old mice. […] The rapid washout of [18F]W372 is presumably a major factor for its low non-specific binding, yet the washout is slow enough to distinguish WT from APP.
# [3] = test system: human brain slices from AD patients; experiment: Grey to white matter binding of tracers on human AD brain slices under various washing conditions; conditions: EtOH:water washes
# Protocol: A study was conducted to examine the grey to white matter binding ratios for 2 different tracers: 18F-W372 and 18F-PiB. After the human brain slices from AD patients were incubated with a given tracer for 1 hr, the slices were washed with various EtOH:water solutions in an attempt to optimize the grey to white matter ratios. The results were surprising and unexpected in view of previous work performed by other researchers.
# [4] = Mouse metabolism studies (organ uptake and metabolites); format: in vivo; conditions: mice, tail-vein
# Protocol: Approximately 400 μCi of [F-18]W372 (at a volume of 200 μL) was injected via tail-vein into mice. The animals were sacrificed at 5 minutes (n=3) and 30 minutes (n=3) post-injection. Whole blood was obtained, weighed, and centrifuged at 13,000 RPM (3 minutes) to isolate plasma. The brain, kidneys, and liver were harvested, weighed, and homogenized in lysis buffer. 400 μL of each sample was subsequently removed, mixed with an equal volume of chloroform/methanol (1:1), vigorously vortexed, and placed on dry ice for 3 minutes. After thawing, another centrifugation step at 13,000 RPM (7 minutes) allowed for the separation of lipid (CHCl3) and aqueous (MeOH/H2O) phases. The hydrophobic and hydrophilic fractions were then removed, counted for radioactivity in a PerkinElmer Wizard gamma counter, and finally analyzed by Radio-HPLC (Raytest GmbH/Agilent).
# [5] = target: 18F-PiB binding sites, amyloid plaque and fibril in human brain slices (Homo sapiens, UniProt P05067); experiment: Human AD brain slice competition against 18F-PiB (IC50); conditions: for IC50: tracer 18F-PiB, human AD brain slices, blocker 0.01 to 10 uM
# Protocol: (§1) The slices were incubated at room temperature for 90 min. The slices were then quickly washed in PBS, followed by 70% EtOH:PBS for 2 min, then 30% EtOH:PBS for 2 min and then quickly washed with PBS. The slices were dried for 30 min and then exposed on autoradiographic film for 20 min. The brain slices were then removed from the slide and the radioactivity counted in a gamma counter. The percentage of blocking versus the concentrations of blocker was then plotted, and IC50 was calculated based on the curve.
# [6] = target: 18F-W372 binding sites, amyloid plaque and fibril in human brain slices (Homo sapiens, UniProt P05067); experiment: Human AD brain slice competition against 18F-W372 (IC50); conditions: tracer 18F-W372, blocker 0.01 to 10 uM
# Protocol: as §1
# [7] = test system: amyloid plaques and fibrils in human brain slices; experiment: Human brain slice competition assay using autoradiography; format: binding; conditions: radiolabeled tracer approx. 20 uCi, 90 min rt, lower = more displacement; for _max low dose (percent dose remaining relative to control with no blocker): blocker 0.25 uM; for _max high dose (percent dose remaining relative to control with no blocker): blocker 2.5 uM
# Protocol: Human Brain Slice Competition Assay Using Autoradiography
# Briefly, 5 micron thick human brain slices from regions of the brain bearing high amyloid plaque and fibril burden were incubated with approximately 20 uCi of a radiolabeled tracer in 2.5%:2.5%:95% DMSO:EtOH:PBS in the presence of blocker (2.5 and 0.25 uM total concentration) or absence of blocker (control). The slices were incubated at rt for 90 min. The slices were then quickly washed in PBS, followed by 70% EtOH:PBS for 2 min, then 30% EtOH:PBS for 2 min and then quickly washed with PBS. The slices were dried for 30 min and then exposed on autoradiographic film for 20 min. The brain slices were then removed from the slide and the radioactivity counted in a gamma counter. The percent dose remaining, relative to a control with no blocker, at 0.25 uM is represented in the “_max low dose” column. The percent dose remaining, relative to a control with no blocker, at 2.5 uM is represented in the “_max high dose” column.
# 18F-W372 binding sites, amyloid plaque and fibril in human brain slices, sequence (P05067 whole entry): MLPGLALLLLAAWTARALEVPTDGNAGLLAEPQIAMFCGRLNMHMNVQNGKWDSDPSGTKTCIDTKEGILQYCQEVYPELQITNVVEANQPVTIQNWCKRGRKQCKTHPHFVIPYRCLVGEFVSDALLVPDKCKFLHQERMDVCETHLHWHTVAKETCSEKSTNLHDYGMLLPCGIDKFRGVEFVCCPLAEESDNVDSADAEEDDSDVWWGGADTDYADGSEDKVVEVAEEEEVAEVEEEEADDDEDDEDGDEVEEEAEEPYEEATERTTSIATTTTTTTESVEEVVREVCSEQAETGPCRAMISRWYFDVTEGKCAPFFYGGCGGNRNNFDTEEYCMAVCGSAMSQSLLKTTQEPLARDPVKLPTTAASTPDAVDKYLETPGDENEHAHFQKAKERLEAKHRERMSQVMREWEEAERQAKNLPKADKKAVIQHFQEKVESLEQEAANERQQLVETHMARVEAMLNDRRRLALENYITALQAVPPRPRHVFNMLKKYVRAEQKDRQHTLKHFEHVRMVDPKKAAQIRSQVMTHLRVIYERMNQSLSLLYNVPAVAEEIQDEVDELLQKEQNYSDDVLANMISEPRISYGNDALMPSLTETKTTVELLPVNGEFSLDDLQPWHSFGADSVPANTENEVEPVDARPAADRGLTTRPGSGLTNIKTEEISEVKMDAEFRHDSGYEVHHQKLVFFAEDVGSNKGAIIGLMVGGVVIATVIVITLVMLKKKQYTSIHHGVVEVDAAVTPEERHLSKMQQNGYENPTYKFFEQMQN
# 18F-PiB binding sites, amyloid plaque and fibril in human brain slices, sequence (P05067 672-711 limits assumed): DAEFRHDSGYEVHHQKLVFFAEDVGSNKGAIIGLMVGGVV
# synthetic beta-Amyloid-42, sequence (P05067 672-713 limits assumed): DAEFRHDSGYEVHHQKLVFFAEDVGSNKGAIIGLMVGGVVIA
Compound,IC50 [5],IC50 [6],_max low dose (percent dose remaining relative to control with no blocker) [7],_max high dose (percent dose remaining relative to control with no blocker) [7],further results
COc1ccc2c(n1)sc1nc(-c3ccc([18F])nc3)cn12 [Compound 18F-W372],,,,,"KD value, synthetic amyloid fibril [1]: lower KD value compared with the known compound 18F-PiB; brain washout (microPET) ([2]; 30 minute dynamic scans, young/old, WT/App mice): sufficiently slow washout such that one can distinguish WT from APP mice; brain uptake (microPET) ([2]; WT and APP mice): > 9 % ID/g; grey to white matter binding ratios ([3]; 1 hr incubation): excellent grey to white matter binding ratios; non-specific (white matter) binding [3]: lower non-specific binding than 18F-PiB; brain uptake ([4]; 5 minutes post-injection): 3.8 % ID/g; brain uptake ([4]; 30 minutes post-injection): 0.47 % ID/g"
COc1ccc2c(n1)sc1nc(-c3ccc(F)cc3)cn12 [Compound W332],79 nM,,,,
"COc1ccc2c(n1)sc1nc(-c3ccc(F)nc3)cn12 [Compound W372, 7-Methoxy-2(6-fluoropyridin-3-yl)imidazo[2,1-b]8-pyridinothiazole]",73 nM,37 nM,,,competition with 18F-PiB for binding sites / binding affinity relative to PiB ([5]; human AD brains): strongly competes with 18F-PiB for binding sites in human AD brains
"COc1ccc2c(c1)oc1nc(-c3ccc(F)cn3)cn12 [Compound W380, 7-methoxy-2-(5-fluoro-2-pyridyl)-imidazo[2,1-b]benzoxazole]",73 nM,,,,
"COc1ccc2c(n1)oc1nc(-c3ccc(F)cc3)cn12 [Compound W386, 7-Methoxy-2(4-fluorophenyl)imidazo[2,1-b]8-pyridino-oxazole]",210 nM,71 nM,,,
COc1ccc2c(c1)sc1nc(-c3ccc(F)nc3)cn12 [Compound W388],,150 nM,,,
COc1ccc2c(n1)sc1nc(-c3ccc(F)c(O)c3)cn12 [Compound W389],130 nM,,,,
"COc1ccc2c(n1)sc1nc(-c3cnc(F)cn3)cn12 [Compound W392, 7-methoxy-2(2-fluoropyrazin-5-yl)imidazo[2,1-b]8-pyridinothiazole]",,210 nM,,,
COc1ccc2c(n1)oc1nc(-c3ccc(F)nc3)cn12 [Compound W393],,170 nM,,,
"CN(C)c1ccc(-c2ncc(/C=C/c3ccc(O)cc3)s2)cc1 [UG-4-69, (E)-4-(2-(2-(4-(dimethylamino)phenyl)thiazol-5-yl)vinyl)phenol]",,,69.79%,31.02%,
O=CNc1ccc2c(c1)[nH]c1cc(OCc3ccccc3)ccc12 [WZ01169],,,42.09%,36.55%,
Nc1nc(-c2ccc3ccccc3c2)cs1 [w18],,,69.20%,27.86%,
Oc1ccc2c(c1)[nH]c1cc(NCCF)ccc12 [w78],,,99.49%,63.32%,
